In ChEMBL document CHEMBL1629634, “Postantibiotic effect of tigecycline against 14 gram-positive organisms” (Antimicrob Agents Chemother, 2009):
Converted amounts (≈) assume the structure as drawn.

Assays:
Acinetobacter baumannii [1] = experiment: Antibacterial activity against Acinetobacter baumannii assessed as post-antibiotic sub-MIC effect at 0.2 times MIC concentration pretreated with 10 times MIC concentration for 1 hr followed by 1:1000 dilution by viable plate count method; type: functional
Streptococcus pneumoniae [2] = experiment: Antibacterial activity against Streptococcus pneumoniae infected in neutropenic mouse thighs assessed as post antibiotic effect; type: functional, Thigh muscle
Acinetobacter baumannii [3] = experiment: Antibacterial activity against multidrug-resistant Acinetobacter baumannii producing OXA-24 and OXA-51 beta-lactamases assessed as post-antibiotic sub-MIC effect at 0.2 times MIC concentration pretreated with 2 times MIC concentration for 1 hr followed by 1:1000 dilution by viable plate count method; type: functional
Haemophilus influenzae = experiment: Antibacterial activity against amoxicillin, clavulanate-resistant Haemophilus influenzae expressing beta-lactamase assessed as post antibiotic effect at 10 times MIC concentration incubated for 1 hr measured after 1:1000 dilution by viable plate count method; type: functional
Escherichia coli [4] = experiment: Antibacterial activity against Escherichia coli assessed as sub-MIC effect at 0.4 times MIC concentration incubated for 1 hr by viable plate count method; type: functional
Enterococcus faecalis [5] = experiment: Antibacterial activity against vancomycin-resistant Enterococcus faecalis assessed as post-antibiotic sub-MIC effect at 0.2 times MIC concentration pretreated with 10 times MIC concentration for 1 hr followed by 1:1000 dilution by viable plate count method; type: functional
Streptococcus pneumoniae [6] = experiment: Antibacterial activity against penicillin-susceptible Streptococcus pneumoniae assessed as post antibiotic effect at 10 times MIC concentration incubated for 1 hr measured after 1:1000 dilution by viable plate count method; type: functional
Enterococcus faecalis [7] = experiment: Antibacterial activity against vancomycin-sensitive Enterococcus faecalis assessed as sub-MIC effect at 0.2 times MIC concentration incubated for 1 hr by viable plate count method; type: functional
Acinetobacter baumannii [8] = experiment: Antibacterial activity against multidrug-resistant Acinetobacter baumannii producing OXA-24 and OXA-51 beta-lactamases assessed as post-antibiotic sub-MIC effect at 0.4 times MIC concentration pretreated with 2 times MIC concentration for 1 hr followed by 1:1000 dilution by viable plate count method; type: functional
Escherichia coli [9] = experiment: Antibacterial activity against Escherichia coli by macrodilution method; type: functional

CN(C)c1cc(NC(=O)CNC(C)(C)C)c(O)c2c1C[C@H]1C[C@H]3[C@H](N(C)C)C(O)=C(C(N)=O)C(=O)[C@@]3(O)C(O)=C1C2=O [TIGECYCLINE]
PAE (Acinetobacter baumannii [1]): 6.7 h | PAE (Streptococcus pneumoniae [2]): 8.9 h | PAE (Acinetobacter baumannii [3]): 1.2 h | PAE (Haemophilus influenzae): 3.7 h | PAE (Escherichia coli [4]): 0.1 h | PAE (Enterococcus faecalis [5]): 7.6 h | PAE (Streptococcus pneumoniae [6]): 3.7 h | PAE (Enterococcus faecalis [7]): 0 h | PAE (Acinetobacter baumannii [8]): 3 h | MIC (Escherichia coli [9]): 0.12 µg/mL (≈ 0.205 µM)
